This is an account of results in US10722491B2, “Phenol compound and combination of same with a benzodiazepine fused to 1,4-dihydropyridine for treating diseases of the central nervous and vascular systems” (UNIVERSIDAD DE LA HABANA, priority 2016, dated 2020).

The structures appear in SMILES notation.

Data set [1] has as its system occlusion of the middle cerebral artery in rats. In words: Transient middle cerebral artery occlusion, cerebral infarct size (TTC). Conditions: for Total volume of infarction (percentage of the contralateral hemisphere): 1 hour after reperfusion, 90 min occlusion, 23 h reperfusion, vehicle 27.5%. The data set is classed as in vivo. On the procedure: (§1) FIG. 13. Acute treatment with KM-34 reduced the volume of infarction edema and deficit in rat behavior after 90 min of middle cerebral artery occlusion (MACA) and 23 hours of reperfusion. The different doses of the compound were administered orally 1 hour after reperfusion. (A) Representative brain coronal sections (2 mm thick) of the sham and ischemic groups treated with vehicle or KM-34 (0.1, 0.5 or 1 mg/kg) and stained with 2,3,5-triphenyltetrazolium (TTC) 2%. The red regions correspond to undamaged tissue and white to ischemic regions. (B) Quantitative analysis of cortical, subcortical and total lesion size. (C) Neurological deficit. The bars represent the mean ± SEM (n=8). Different letters in (A) and * in (B): p<0.05, by ANOVA and post hoc of Newman-Keuls. Scale=10 mm.
The animals were randomly divided into the following groups (n=8 per group): (1) vehicle treated ischemia/reperfusion (I/R) control, (2) KM-34 treated I/R 0.1 mg/kg, (3) I/R treated with KM-34 0.5 mg/kg, (4) I/R treated with KM-34 1 mg/kg, (5) sham-operated vehicle treated and (6) sham—With KM-34 1 mg/kg. In all cases the treatment was administered orally (with an intragastric cannula). […]
(§2) Transient cerebral ischemia was performed by the OACM, using the intraluminal filament method. […] After 23 hours of reperfusion, the neurological deficit was evaluated and the animals sacrificed to determine the infarct volume and perform the behavioral evaluations.
Cerebral infarction was determined by staining with TTC, a colorless compound in solution but which, when reduced by dehydrogenases of functional mitochondria, forms a red brick formazan salt. […]
The animals were anesthetized again after the neurological evaluation and were perfused transcardially with 20 mL of saline at 4° C. […] The edema index (volume of the hemisphere ipsilateral to the OACM/volume of the contralateral hemisphere) and the volume of corrected infarction (volume of the lesion/edema index) were calculated to avoid overestimation of the infarct volume by cerebral edema. Infarct volume was expressed as a percentage of the contralateral hemisphere.

Data set [2] shares this test system. In words: Transient middle cerebral artery occlusion, neurological deficit score. Format: in vivo. Conditions: 0.5 and 1 mg/kg oral, 1 hour after reperfusion. On the procedure:
as §1, with “mm. […]” for “mm.”
as §2
Neurological deficit was assessed according to a six-point scale: 0=no observable neurological deficit; 1=no extension of the left front leg; 2=shifts in circles to the left if the animal is suspended by the tail; 3=spontaneous displacements in circles to the left; 4=no spontaneous motor activity with decreased level of consciousness; 5=death.

The subject of data set [3] is animals damaged with 6-OHDA. In words: 6-OHDA Parkinson's model, vertical exploratory activity. Format: in vivo, rats.
Data set [4] concerns scopolamine cognitive deficit. The data set is described as follows: Scopolamine-induced dementia, T maze spontaneous alternation. The data set is classed as in vivo, rats. The note with it: 2, 4 and 8 mg/kg p.o., 1 hour before scopolamine 1 mg/kg i.p. On the procedure:
FIG. 11. Effect of KM-34 on spatial memory. In the T labyrinth, KM-34 (2, 4 and 8 mg/k, p.o) was given 1 hour prior to scopolamine (1 mg/kg, i.p.). Data are expressed as mean ± SD (n=7, per group) of the percentage of spontaneous alternation. For statistical anal sis ANOVA and Tukey's multiple comparison test were performed. Different letters differ from each other for p<0.01. In in vivo models, KM-34 was administered orally (p.o) at a rate of 4 mL/kg body weight. Doses of 2, 4 and 8 mg/kg were evaluated as acute administration 90 minutes before the start of behavioral tests. For administration the compound was suspended in carboxymethylcellulose (CMC) 0.05%. Scopolamine bromide was dissolved in 0.9% saline solution and administered intraperitoneally as a single dose (1 mg/kg, 4 mL/kg body weight) 30 minutes prior to the initiation of the behavioral tests. The animals were randomly selected and divided into 5 experimental groups with different treatments (n=7, per group): control group (CMC and saline), vehicle group (CMC and scopolamine 1 mg/kg), KM-34 (KM-34 4 mg/kg and scopolamine 1 mg/kg) and (KM-34 8 mg/kg and scopolamine 1 mg/kg). […] The series of entries to each arm was recorded and the percentage of alternation was calculated as: (number of alternations performed/total of possible alternations)×100. […]

Take `CC1(C)OC(=O)C(=Cc2ccc(O)c(O)c2)C(=O)O1` [KM-34, 5-[(3,4-dihydroxyphenyl)methylidene]-2,2-dimethyl-1,3-dioxane-4,6-dione]: the “Total volume of infarction (percentage of the contralateral hemisphere)” value in data set [1] (0.5 mg/kg oral) amounted to 15.7%; in data set [1] (1 mg/kg oral) it was 5.3%. For the same compound, the “Tissue damage or behavioral alterations under basal conditions” value in data set [1] (sham group (without OACM), KM-34 1 mg/kg oral) is “no sign of tissue damage or behavioral alterations”. In addition, the “Neurological deficit (neurological score)” value in data set [2] was “significantly improved (p<0.05) the neurological deficit”. The Vertical exploratory behavior entry in data set [3] (0.5 and 1 mg doses, vs damaged animals) is on record as “did not show statistically significant differences”; in data set [3] (maximum dose 2 mg/Kg) it was “statistically significant differences with respect to damaged animals”. Moreover, the “Spatial memory, percentage of spontaneous alternation in T maze” value in data set [4] is “significantly (p<0.01) protected from spatial memory damage”.
